Reference: paper PMC10107917 (ACS Medicinal Chemistry Letters, 2023)
Read-outs that look alike come from different tables or passages of the source. Square brackets hold non-standard residues; d marks the D form. * marks the point of attachment. AMC = Cc1cc(=O)oc2cc(N*)ccc12; pGlu = O=C1CC[C@@H](C(=O)O)N1

Legend:
human recombinant furin [1] = biological target: T1, human recombinant furin (Homo sapiens, UniProt P09958); format: biochemical
T1 construct: Soluble human recombinant furin was kindly gifted; gift of Dr Anna Kwiatkowska (group of Prof. Robert Day, Université de Sherbrooke)
Protocol: Initially, the activities of the furin inhibitors were screened at three concentrations, i.e., 2.4, 24.0, and 77.0 nM (Figure 4). For selected peptides 3, 5, and 6 and the reference FI, the inhibitory constants (Ki) were calculated (Table 2). Except for the bicyclic peptide 4, all of the inhibitors almost completely abolished the enzyme activity at the highest tested concentration. Peptide 4 was explicitly the weakest inhibitor in the series, also when compared with its monocyclic disulfide-bridged counterpart 1. When the inhibitory activities were analyzed at the lowest tested concentration (2.4 nM), three peptides (3, 5, and 6) reduced the furin activity to less than 50% of its initial noninhibited activity. All of them have an additional basic amino acid at their N-termini (in MD simulations this is depicted as a residue with number “0”). […] Such close inhibitory potency was not observed in the case of an analogous pair, i.e., 2 and 5. […] The two disulfide-bridged peptides, FI and 1, differ only at the P4 position, having Lys and Arg, respectively. […]
The IC50 values (inhibitor concentrations giving 50% inhibition of enzyme activity) were calculated from plots of enzyme activity (% of control sample) versus the inhibitor’s concentration using a four-parameter fit model (GraFit 5.0.12 Erithacus Software Ltd.). The IC50 values were determined from triplicate measurements with at least seven different inhibitor concentrations. The K i values […] were calculated using the Cheng-Prusoff equation, assuming the competitive mode of inhibition, according to the following relationship: IC50 = K i(1+S/Km). All measurements were performed using a Fluostar Omega microplate reader (BMG Labtech, Germany) and 96-well black plates (BRAND, Germany). Recombinant human matriptase-1/ST14 catalytic domain was purchased from R&D Systems, USA. Recombinant human matriptase-2 was obtained from Enzo Life Sciences, Switzerland.
Soluble human recombinant furin was kindly gifted by Dr Anna Kwiatkowska (group of Prof. Robert Day from Université de Sherbrooke).4
The following assay buffers were used: […] (matriptase-1 and matriptase-2), pH 7.5 100 mM HEPES with 1 mM CaCl 2 and 1.8 mg/mL BSA (furin). The substrates used in the assays were as follows: for matriptase-1 and matriptase-2 Boc-Gln-Ala-Arg-AMC (Pepta Nova, Germany) in final concentration of 5 µM, for furin […] (Pepta Nova, Germany) in final concentration of 20 µM. Enzymes concentrations were as follows: 1.25 ng/mL of matriptase-1, 1.51 U/mL for matriptase-2, and 1.1 nM for furin. In the case of matriptase-1 and matripase-2 concentrations were calculated according to information provided by the suppliers.
In short, the tested compounds were added to the appropriate protease in different concentrations and incubated in an assay buffer at 37 °C for 30 min. After this time, a solution of appropriate substrate was added. Reactions were monitored for at least 40 min at 37 °C. The final volume in each well was 200 µL for matriptases and 100 µL for furin. Measurements were carried out using excitation and emission wavelengths of 380 nm and 450 nm. The percentage inhibition of an enzyme was calculated relative to the control sample without an inhibitor. The K m value for furin substrate was determined by incubating the enzyme with its substrate in various concentrations as recommended.5 Plots of the substrate concentration versus the initial reaction velocity were analyzed according to Michaelis-Menten equation using GraFit 5.0.12 Erithacus Software Ltd. A double reciprocal (Lineweaver-Burk) plot was used to determine the Michaelis constant K m value. K m value determined for furin was 1.90 µM.
(§1) Total furin-like enzyme inhibition/activity in PANC-1 cell lysates
Cell line and cell culture. The pancreatic cancer cell line, PANC-1, was obtained from the American Type Culture Collection, ATCC (Manassas, USA). […]

human recombinant furin [2] = biological target: T1, human recombinant furin; experiment: Screening (iterative deconvolution) of peptide sublibraries for furin inhibition; format: biochemical; conditions: Figure 3D1
Protocol: Each of the sublibraries was screened for inhibitory activity against human recombinant furin in the presence of the fluorogenic substrate Pyr-Arg-Thr-Lys-Arg-AMC (where Pyr is pyroglutamic acid and AMC is 7-amino-4-methylcoumarin). Initially, each sublibrary was screened in a 2.2 ng/mL stock solution (Figure 3).
Phe(4-NH-Boc) we experienced difficulties with complete coupling. So we performed reactions by applying microwave heating (50 °C) which improved the process. The same procedures were applied during the whole library synthesis. 10% of mass of each portion was removed for deconvolution.
2. After that, both portions were combined and divided into 10 (j) equal portions, each of which was acylated individually with different protected amino acid. 10% of the mass of each portion was removed for deconvolution.
3. After mixing all j portions of peptidyl–resin, Cys protected derivative was attached.
4. […]
6. Sublibraries with fixed best hits in Xaa (l-j) were subsequently synthesized (using previously put aside 10% of synthesized sublibraries) and their inhibitory activity was determined until the position Xi. […] The inhibitory activity of sublibraries against furin were measured using Pyr-Arg-Thr-Lys-Arg-AMC fluorogenic substrate (Pepta Nova). The experiments were performed on 96-well plates (BRAND, Germany) and microplate reader FluoStar Omega (BMG Labtech, Germany). […]

PANC-1 cell lysate = conditions: human, 37 °C
[3] = test system: furin-like enzyme activity in PANC-1 cell lysate; experiment: Total furin-like enzyme activity in PANC-1 cell lysate; format: biochemical, human; conditions: peptide 100 µM
Protocol: The presence of furin in PANC-1 cell lysate was indicated by analyzing the release of fluorescent AMC product after incubation of furin substrate (Pyr-Arg-Thr-Lys-Arg-AMC) in the lysate, as described elsewhere.[31],[32] However, we are aware that this assay tends to reflect total furin-like enzyme activity rather than the activity of furin exclusively. This is the case because the liberation of AMC may be catalyzed not only by furin but also by an enzyme with a similar substrate preference, such as other PCs.[31] […] For comparison, the effect of a strong trypsin inhibitor, […] SFTI-1, on furin-like activity was insignificant under the same assay conditions. […] It is likely that SFTI-1 may provide protection for furin inhibitors from degradation by trypsin-like proteases. […]
µL for matriptases and 100 µL for furin. Measurements were carried out using excitation and emission wavelengths of 380 nm and 450 nm. The percentage inhibition of an enzyme was calculated relative to the control sample without an inhibitor. […]
as §1
Cell line and cell culture. The pancreatic cancer cell line, PANC-1, was obtained from the American Type Culture Collection, ATCC (Manassas, USA). PANC-1, a human pancreatic cancer cell line, was isolated from the pancreatic duct (ATCC, CRL-1469) and was cultured in Dulbecco’s Modified Eagle’s Medium (DMEM) by supplementing 10% fetal bovine serum (FBS) and 1% of penicillin/streptomycin (P/S). Cells were cultured at 37 °C with 5% CO2 in a humidified atmosphere. Cells were maintained in a 75 cm2 tissue culture flask. The medium was replaced every two days. The subcultivation ratio was […]
Preparation of lysates. PANC-1 cells were seeded in a Petri dishes. After 24 hours, […] were collected and centrifuged at 975 × g at 4 °C for 9 minutes. The supernatant was removed, and the cells were resuspended in a cold PBS buffer. The cells were centrifuged again at 900 × g at 4 °C for 5 minutes.
The supernatant was removed. Cells were suspended in Halt Protease Inhibitor Cocktail, EDTA-Free (100X) (Thermo Fisher Scientific). The samples were stored for 2 hours at -80°C. The samples were then defrosted and centrifuged at 16 000 × g at 4 °C for 20 minutes. The supernatant was stored at -80 […]
The inhibitory potency of selected peptides was examined in cell lysate alone or in presence of sunflower trypsin inhibitor (SFTI-1)6 sing furin fluorogenic substrate […] (Pepta Nova, Germany). Furin activity was determined by monitoring the AMC liberation over time with a plate reader. Measurements were performed using 96-well black plates (BRAND, Germany).
The general procedure was according to.7 In short: 20 µL of cell lysate (diluted 10 times with assay buffer pH 7.5 100 mM HEPES with 1 mM CaCl 2) was added to the well containing 60 µL of water, after 15 min in 37 °C 10 µL of peptide solution (final concentration in well 100 µM) was added. After 30 min incubation in 37 °C 10 µL substrate (100 µM final concentration) was added. […]
Next step was addition of appropriate peptide solution
(final concentration in well 100 µM) and 30 min incubation in 37 °C. After this time 10 µL substrate (100 µM final concentration) was added to the well. Percentage inhibition of the enzyme was calculated relative to the control sample without inhibitor.
Human serum from plasma (Sigma Aldrich, Germany) was prepared for the assay as referred previously.8 The experiments were carried out according to the procedure described before.2 The initial concentration of the peptide solutions was 1.54 mM. Each peptide solution was then diluted 10 times with human serum and incubated at 37 °C. Immediately after the start of incubation, 1, 2, 3, 5 and 24

[4] = inhibitor 77.0 nM (highest tested concentration)

T1 sequence (P09958 108-715 limits assumed): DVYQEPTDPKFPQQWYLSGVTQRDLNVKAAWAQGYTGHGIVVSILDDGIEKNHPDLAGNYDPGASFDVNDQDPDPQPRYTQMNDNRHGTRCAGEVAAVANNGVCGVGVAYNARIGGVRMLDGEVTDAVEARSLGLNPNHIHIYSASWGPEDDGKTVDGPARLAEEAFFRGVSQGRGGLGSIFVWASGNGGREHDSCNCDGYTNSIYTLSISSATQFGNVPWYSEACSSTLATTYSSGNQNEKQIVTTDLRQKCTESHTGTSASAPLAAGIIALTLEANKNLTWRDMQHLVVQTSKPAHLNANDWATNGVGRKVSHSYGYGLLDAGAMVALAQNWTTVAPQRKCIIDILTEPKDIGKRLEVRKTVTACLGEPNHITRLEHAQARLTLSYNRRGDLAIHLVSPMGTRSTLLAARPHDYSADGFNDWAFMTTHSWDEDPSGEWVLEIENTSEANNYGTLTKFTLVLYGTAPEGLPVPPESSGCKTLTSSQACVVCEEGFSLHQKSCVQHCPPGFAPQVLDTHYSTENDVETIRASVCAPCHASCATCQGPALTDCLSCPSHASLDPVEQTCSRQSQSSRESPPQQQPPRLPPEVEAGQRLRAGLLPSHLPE

Substance	furin activity versus control with no inhibitor added (human recombinant furin [1]; inhibitor 2.4 nM)	furin activity versus control with no inhibitor added (human recombinant furin [1]; inhibitor 24.0 nM)	furin activity versus control with no inhibitor added (human recombinant furin [1]; [4])	times more active than the peptide with Orn at P2 (human recombinant furin [2])	cleaved bond (PANC-1 cell lysate)	effect on furin-like activity in PANC-1 cell lysate [3]
&^1Arg-Arg-Cys(&^2)-Lys-Lys-Ser-Ile-Pro-Pro-Ile-Cys(&^2)-Phe&^1 (KKSIPPIC; Arg-Arg-Cys, Phe; head-to-tail cyclised, disulfide; printed: Lys-Lys-Ser-Ile-Pro-Pro-Ile-Cys) [inhibitor 4]	97.18%	46.14%	3.72%			
Arg-Arg-Cys(&)-Lys-Lys-Ser-Ile-Pro-Pro-Ile-Cys(&)-Phe-NH2 [inhibitor 1]	62.95%	6.02%	0.20%	2–3 times		
Lys-Arg-Arg-Cys(&)-Lys-Lys-Ser-Ile-Pro-Pro-Ile-Cys(&)-Phe-NH2 [inhibitor 2]	66.51%	3.98%	0.10%			
[pGlu]RTKR-{AMC}					Arg-AMC	
sunflower trypsin inhibitor 1 [SFTI-1, reference compound]						insignificant
